Test results: patent US20250368628A1, “METHODS AND COMPOUNDS FOR MODULATING INHERITED GENETIC DISEASES” (Design Therapeutics, Inc., priority 2022, published 2025)
Like-named read-outs stand apart in the source and are kept apart here.

What was measured:
[1] = system: Myotonic Dystrophy 1 affected patient fibroblasts (Coriel GM04602; 1600 CTG repeats); experiment: DM1 foci reduction assay (EC50 assay; CAG10-Cy3 FISH, foci per nucleus); format: cell-based; conditions: Homo sapiens, Fibroblast
How it was run: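 GM04602 DM1 patient fibroblasts (1600 CTG repeats) seeded 24 h, then treated 48 h at 37 °C with an 8-point 1:3 dose series from 3 μM. Cells PFA-fixed, ethanol-permeabilized and hybridized overnight with 5 nM CAG10-Cy3 probe, DAPI counterstained. Imaged at 20×, 4 fields per well, as average foci per nucleus.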

F35T cells = experiment: Foci reduction in FECD (CAG10-Cy3 FISH, foci per nucleus); format: cell-based
Experimental: F35T cells were cultured in media containing Opti-MEM (ThermoFisher) supplemented with 8% FBS, 20 μg/mL ascorbic acid, […] CaCl2, 0.08% chondroitin sulfate, 1×Pen/Strep, 100 μg/mL bovine pituitary extract, 5 ng/mL epidermal growth factor, and 20 ng/mL nerve growth factor. Throughout the culture, cells were maintained in an incubator at 37° C. and 5% CO2. Media was refreshed every 48 hours. Once cells reached adequate confluency, they were harvested and seeded in 96 well plates with a density of 5000 cells per well in 200 μL of the supplemented Opti-MEM media. Cells were returned to the incubator and left to settle for 24 hours at 37° C. and 5% CO2. Cells were then treated in 8-point dose response with compounds or negative controls and incubated for 48 hours at 37° C. and 5% CO2. After treatment, cells were fixed with 4% PFA for 20 minutes at room temperature, followed by permeabilization with 70% ethanol. Cells were incubated at −20° C. for a minimum of 1 hour and maximum of 72 hours, after which the ethanol was removed, and cells were washed with PBS. Cells were rehydrated with 30% formamide and 2×SSC buffer for 10 minutes at room temperature. Cells were then incubated overnight at 37° C. in the hybridization solution containing 30% formamide, 2×SSC, 55 mg/mL dextran sulfate, 2.75 mg/mL bovine serum albumin, 0.2 μg/mL Herring sperm DNA, 1% vanadyl-ribonucleoside complex, and 0.05% 10 μM CAG10-Cy3 probe. Cells were washed twice with 30% formamide in 2×SSC, incubating the cells while shaking with the second wash at 37° C. and 200 rpm for 60 minutes. Cells were stained with 5 mg/mL DAPI 1:1000 in PBS, incubating at room temperature for 5 minutes. Cells were then washed with PBS and sealed with adhesive foil, with each well containing a final volume of 150 μL PBS. Cells were imaged on a Cytation 5 and analyzed on a foci per nucleus basis.

[2] = DM1 patient fibroblasts, 48 h treatment, foci per nucleus, read-out: DM1 EC50, 48 h
[3] = F35T cells, 48 h treatment, foci per nucleus, read-out: FECD EC50, 48 h

Compound	EC50 [1, 2]	EC50 (F35T cells; [3])	EC50 ([1]; 48 h, read-out: DM1 EC50, 48 h (nM))	EC50 (F35T cells; 48 h, read-out: FECD EC50, 48 h (nM))
Cn1cc(NC(=O)c2nc(NC(=O)CCNC(=O)c3cc(NC(=O)c4nccn4C)cn3C)cn2C)cc1C(=O)NCCCC(=O)Nc1cn(C)c(C(=O)NCCC(=O)Nc2cc(C(=O)Nc3cn(C)c(C(=O)NCCC(=O)NCCCCC#N)n3)n(C)c2)n1 [Compound B-113]	< 100 nM	< 100 nM	–	–
CN(C)C(=O)CCNC(=O)c1nc(NC(=O)c2cc(NC(=O)CCNC(=O)c3nc(NC(=O)CCCNC(=O)c4cc(NC(=O)c5nc(NC(=O)CCNC(=O)c6cc(NC(=O)c7nccn7C)cn6C)cn5C)cn4C)cn3C)cn2C)cn1C [Compound B-313]	< 100 nM	< 100 nM	–	–
COCCOCCOCCOCCOCCOCCC(=O)NCCCCCCn1cc(NC(=O)c2nc(NC(=O)CCNC(=O)c3cc(NC(=O)c4nccn4C)cn3C)cn2C)cc1C(=O)NCCCC(=O)Nc1cn(C)c(C(=O)NCCC(=O)Nc2cc(C(=O)Nc3cn(C)c(C(=O)NCCCN(C)CCCNC(=O)c4cccc(C(=O)O)c4)n3)n(C)c2)n1 [Compound B-237]	500 to 1000 nM	100 to 500 nM	–	–
CCCNC(=O)CCNC(=O)c1nc(NC(=O)c2cc(NC(=O)CCNC(=O)c3nc(NC(=O)CCCNC(=O)c4cc(NC(=O)c5nc(NC(=O)CCNC(=O)c6cc(NC(=O)c7nccn7C)cn6C)cn5C)cn4C)cn3C)cn2C)cn1C [Compound B-1]	100 to 500 nM	< 100 nM	–	–
Cn1cc(NC(=O)c2nc(NC(=O)CCNC(=O)c3cc(NC(=O)c4nccn4C)cn3C)cn2C)cc1C(=O)NCCCC(=O)Nc1cn(C)c(C(=O)NCCC(=O)Nc2cc(C(=O)Nc3cn(C)c(C(=O)NCCC(=O)N4CCNCC4)n3)n(C)c2)n1 [Compound B-49]	100 to 500 nM	100 to 500 nM	–	–
Cn1cc(NC(=O)c2nc(NC(=O)CCNC(=O)c3cc(NC(=O)c4nccn4C)cn3C)cn2C)cc1C(=O)NCCCC(=O)Nc1cn(C)c(C(=O)NCCC(=O)Nc2cc(C(=O)Nc3cn(C)c(C(=O)NCCC(=O)NCCOCCOCCOCCN4CCC(C#CC#CC5CCN(C(=O)c6ccc(C(C)(C)C)cc6)CC5)CC4)n3)n(C)c2)n1 [Compound B-175]	100 to 500 nM	100 to 500 nM	–	–
Cn1cc(NC(=O)c2nc(NC(=O)CCNC(=O)c3cc(NC(=O)c4nccn4C)cn3C)cn2C)cc1C(=O)NCCCC(=O)Nc1cn(C)c(C(=O)NCCC(=O)Nc2cc(C(=O)Nc3cn(C)c(C(=O)NCCC(=O)NC(CO)COP(=O)(O)Oc4ccccc4Cl)n3)n(C)c2)n1 (stereo not drawn) [Compound B-394]	–	–	100 to 500 nM	500 to 1000 nM
CC(C)CCNC(=O)CCNC(=O)c1nc(NC(=O)c2cc(NC(=O)CCNC(=O)c3nc(NC(=O)CCCNC(=O)c4cc(NC(=O)c5nc(NC(=O)CCNC(=O)c6cc(NC(=O)c7nccn7C)cn6C)cn5C)cn4C)cn3C)cn2C)cn1C [Compound B-179]	100 to 500 nM	< 100 nM	–	–
CN(C)CCCNC(=O)c1nc(NC(=O)c2cc(NC(=O)CCNC(=O)c3nc(NC(=O)CCCNC(=O)c4cc(NC(=O)c5nc(NC(=O)CCNC(=O)c6cc(NC(=O)c7nccn7C)cn6C)cn5C)cn4C)cn3C)cn2C)cn1C [Compound B-108]	100 to 500 nM	100 to 500 nM	–	–
CN1CCC(N2CCN(C(=O)CCNC(=O)c3nc(NC(=O)c4cc(NC(=O)CCNC(=O)c5nc(NC(=O)CCCNC(=O)c6cc(NC(=O)c7nc(NC(=O)CCNC(=O)c8cc(NC(=O)c9nccn9C)cn8C)cn7C)cn6C)cn5C)cn4C)cn3C)CC2)CC1 [Compound B-120]	500 to 1000 nM	> 1000 nM	–	–
CCCNC(=O)CCNC(=O)c1nc(NC(=O)c2cc(NC(=O)CCNC(=O)c3nc(NC(=O)CCCNC(=O)c4cc(NC(=O)c5nc(NC(=O)CCNC(=O)c6cc(NC(=O)c7nccn7C)cn6C)cn5C)cn4CCCCN=[N+]=[N-])cn3C)cn2C)cn1C [Compound B-278]	< 100 nM	< 100 nM	–	–
CCCN(CCC)C(=O)CCNC(=O)c1nc(NC(=O)c2cc(NC(=O)CCNC(=O)c3nc(NC(=O)CCCNC(=O)c4cc(NC(=O)c5nc(NC(=O)CCNC(=O)c6cc(NC(=O)c7nccn7C)cn6C)cn5C)cn4C)cn3C)cn2C)cn1C [Compound B-50]	100 to 500 nM	< 100 nM	–	–
